Test results: patent US20260285888A1, “HETEROCYCLIC COMPOUND AND USE THEREOF” (OTSUKA PHARMACEUTICAL CO., LTD., priority 2023, published 2026)

Experiments:
[1] = Study for confirmation of conversion to brexpiprazole in a buffer (stability of the evaluation compounds); format: physicochemical; settings: in buffer, average of duplicate; for Concentration of brexpiprazole formed: 60-minute reaction sample; for Concentration of evaluation compound decreased: decrease in 60-minute vs 0-minute reaction sample
In short: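 Compounds (final 1 μmol/L, from 100 μmol/L working solutions) incubated in buffer at 37° C. for 0 or 60 min, in duplicate, after 3 min pre-incubation of the reaction solution. Reactions stopped with acetonitrile/isopropanol (4:1) containing internal standards; compound and formed brexpiprazole quantified against 0.01–1 μmol/L calibration samples.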

in vitro = format: cell-based, human; settings: human, differentiated hl-60 cells, 300 μmol/L, about 24 hours, PMA-differentiated HL-60 cells, LDH; no-treatment 0%, cell lysis buffer 100%; read-out: cytotoxicity (%) Evaluation compound results
In short: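 Cytotoxicity (%) from supernatant LDH activity after ~24 h treatment at 300 μmol/L final, normalised to no-treatment (0%) and lysis buffer (100%). Cells were PMA-differentiated (10 nM, ~72 h) HL-60 in 2% FBS medium; triplicate means.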

Q: What does the source list for `Cc1cccc(C(=O)OCCCCCCOP(=O)([O-])OC[N+]2(CCCCOc3ccc4ccc(=O)[nH]c4c3)CCN(c3cccc4sccc34)CC2)n1` [EX 59, (4-(benzo[b]thiophen-4-yl)-1-(4-((2-oxo-1,2-dihydroquinolin-7-yl)oxy)butyl)piperazin-1-ium-1-yl)methyl (6-((6-methylpicolinoyl)oxy)hexyl) phosphate]?
A: Concentration of brexpiprazole formed [1]: 0 nM; Concentration of evaluation compound decreased [1]: 50 nM; cytotoxicity at 24 h, 300 µM (in vitro): 1%

Q: Which results are given for `CC(C)(C)[Si](C)(C)OCCCCOP(=O)([O-])OC[N+]1(CCCCOc2ccc3ccc(=O)[nH]c3c2)CCN(c2cccc3sccc23)CC1` [EX 60, (4-(benzo[b]thiophen-4-yl)-1-(4-((2-oxo-1,2-dihydroquinolin-7-yl)oxy)butyl)piperazin-1-ium-1-yl)methyl (4-((tert-butyldimethylsilyl)oxy)butyl) phosphate]?
A: Concentration of brexpiprazole formed [1]: 0 nM; Concentration of evaluation compound decreased [1]: 90 nM; cytotoxicity at 24 h, 300 µM (in vitro): 16%

Q: With `O=c1ccc2ccc(OCCCC[N+]3(COP(=O)([O-])OCCCCBr)CCN(c4cccc5sccc45)CC3)cc2[nH]1` [EX 62, (4-(benzo[b]thiophen-4-yl)-1-(4-((2-oxo-1,2-dihydroquinolin-7-yl)oxy)butyl)piperazin-1-ium-1-yl)methyl (4-bromobutyl) phosphate] as the compound, how does the “Concentration of brexpiprazole formed” value [1] read?
A: Its value is 0 nM.

Q: And the “Concentration of evaluation compound decreased” value [1]?
A: Its value is 180 nM.

Q: What about the cytotoxicity at 24 h, 300 µM (in vitro) of the same compound?
A: Its cytotoxicity at 24 h, 300 µM is 3%.

Q: Which “Concentration of brexpiprazole formed” value [1] does the source give for `O=c1ccc2ccc(OCCCC[N+]3(COP(=O)([O-])OCCCCCCCBr)CCN(c4cccc5sccc45)CC3)cc2[nH]1` [EX 64, (4-(benzo[b]thiophen-4-yl)-1-(4-((2-oxo-1,2-dihydroquinolin-7-yl)oxy)butyl)piperazin-1-ium-1-yl)methyl (7-bromoheptyl) phosphate] here?
A: Its value is 0 nM.

Q: And the “Concentration of evaluation compound decreased” value [1]?
A: Its value is 30 nM.

Q: And the cytotoxicity at 24 h, 300 µM (in vitro)?
A: The cytotoxicity at 24 h, 300 µM was 9%.

Q: Which “Concentration of brexpiprazole formed” value [1] does the source give for `CSCCCOP(=O)([O-])OC[N+]1(CCCCOc2ccc3ccc(=O)[nH]c3c2)CCN(c2cccc3sccc23)CC1` [EX 66, (4-(benzo[b]thiophen-4-yl)-1-(4-((2-oxo-1,2-dihydroquinolin-7-yl)oxy)butyl)piperazin-1-ium-1-yl)methyl (3-(methylthio)propyl) phosphate] here?
A: The value was 0 nM.

Q: What about the “Concentration of evaluation compound decreased” value [1] of the same compound?
A: The value was 170 nM.

Q: What about the cytotoxicity at 24 h, 300 µM (in vitro) of the same compound?
A: Its cytotoxicity at 24 h, 300 µM is -2%.

Q: With `CC1(C)OCC(C(=O)OCOP(=O)([O-])OC[N+]2(CCCCOc3ccc4ccc(=O)[nH]c4c3)CCN(c3cccc4sccc34)CC2)CO1` [EX 67, (4-(benzo[b]thiophen-4-yl)-1-(4-((2-oxo-1,2-dihydroquinolin-7-yl)oxy)butyl)piperazin-1-ium-1-yl)methyl (((2,2-dimethyl-1,3-dioxane-5-carbonyl)oxy)methyl) phosphate] as the compound, how does the “Concentration of brexpiprazole formed” value [1] read?
A: Its value is 0 nM.

Q: What about the “Concentration of evaluation compound decreased” value [1] of the same compound?
A: Its value is 90 nM.

Q: And the cytotoxicity at 24 h, 300 µM (in vitro)?
A: The cytotoxicity at 24 h, 300 µM was 1%.

Q: Which “Concentration of brexpiprazole formed” value [1] does the source give for `O=C(O)CCCC(=O)OCOP(=O)([O-])OC[N+]1(CCCCOc2ccc3ccc(=O)[nH]c3c2)CCN(c2cccc3sccc23)CC1` [EX 70, (4-(benzo[b]thiophen-4-yl)-1-(4-((2-oxo-1.2-dihydroquinolin-7-yl)oxy)butyl)piperazin-1-ium-1-yl)methyl (((4-carboxybutanoyl)oxy)methyl) phosphate] here?
A: Its value is 0 nM.

Q: And the “Concentration of evaluation compound decreased” value [1]?
A: Its value is 0 nM.

Q: What about the cytotoxicity at 24 h, 300 µM (in vitro) of the same compound?
A: Its cytotoxicity at 24 h, 300 µM is -7%.

Q: For `CC(C)(CC(=O)O)CC(=O)OCOP(=O)([O-])OC[N+]1(CCCCOc2ccc3ccc(=O)[nH]c3c2)CCN(c2cccc3sccc23)CC1` [EX 71], which “Concentration of brexpiprazole formed” value [1] is on record?
A: Its value is 0 nM.

Q: What about the “Concentration of evaluation compound decreased” value [1] of the same compound?
A: The value was 100 nM.

Q: What about the cytotoxicity at 24 h, 300 µM (in vitro) of the same compound?
A: Its cytotoxicity at 24 h, 300 µM is -9%.

Q: For `CC1(C)OCC(NC(=O)CCCC(=O)OCOP(=O)([O-])OC[N+]2(CCCCOc3ccc4ccc(=O)[nH]c4c3)CCN(c3cccc4sccc34)CC2)CO1` [EX 74, (4-(benzo[b]thiophen-4-yl)-1-(4-((2-oxo-1,2-dihydroquinolin-7-yl)oxy)butyl)piperazin-1-ium-1-yl)methyl (((5-((2.2-dimethyl-1,3-dioxan-5-yl)amino)-5-oxopentanoyl)oxy)methyl) phosphate], which “Concentration of brexpiprazole formed” value [1] is on record?
A: Its value is 0 nM.

Q: And the “Concentration of evaluation compound decreased” value [1]?
A: The value was 50 nM.

Q: And the cytotoxicity at 24 h, 300 µM (in vitro)?
A: The cytotoxicity at 24 h, 300 µM was -1%.

Q: For `COCCOC(=O)CCCCCCCCCCC(=O)OCOP(=O)([O-])OC[N+]1(CCCCOc2ccc3ccc(=O)[nH]c3c2)CCN(c2cccc3sccc23)CC1` [EX 77, (4-(benzo[b]thiophen-4-yl)-1-(4-((2-oxo-1,2-dihydroquinolin-7-yl)oxy)butyl)piperazin-1-ium-1-yl)methyl (((12-(2-methoxyethoxy)-12-oxododecanoyl)oxy)methyl) phosphate], which “Concentration of brexpiprazole formed” value [1] is on record?
A: The value was 0 nM.

Q: What about the “Concentration of evaluation compound decreased” value [1] of the same compound?
A: The value was 110 nM.

Q: And the cytotoxicity at 24 h, 300 µM (in vitro)?
A: Its cytotoxicity at 24 h, 300 µM is 6%.

Q: For `CC(=O)Oc1ccccc1C(=O)OCOP(=O)([O-])OC[N+]1(CCCCOc2ccc3ccc(=O)[nH]c3c2)CCN(c2cccc3sccc23)CC1` [EX 80, (2-acetoxybenzoyl)oxy)methyl ((4-(benzo[b]thiophen-4-yl)-1-(4-((2-oxo-1,2-dihydroquinolin-7-yl)oxy)butyl)piperazin-1-ium-1-yl)methyl) phosphate], which “Concentration of brexpiprazole formed” value [1] is on record?
A: The value was 0 nM.

Q: And the “Concentration of evaluation compound decreased” value [1]?
A: Its value is 170 nM.

Q: And the cytotoxicity at 24 h, 300 µM (in vitro)?
A: The cytotoxicity at 24 h, 300 µM was 7%.

Q: With `Cc1ncccc1C(=O)OCOP(=O)([O-])OC[N+]1(CCCCOc2ccc3ccc(=O)[nH]c3c2)CCN(c2cccc3sccc23)CC1` [EX 81, (4-(benzo[b]thiophen-4-yl)-1-(4-(2-oxo-1,2-dihydroquinolin-7-yl)oxy)butyl)piperazin-1-ium-1-yl)methyl (((2-methylnicotinoyl)oxy)methyl) phosphate] as the compound, how does the “Concentration of brexpiprazole formed” value [1] read?
A: The value was 0 nM.

Q: And the “Concentration of evaluation compound decreased” value [1]?
A: The value was -30 nM.

Q: And the cytotoxicity at 24 h, 300 µM (in vitro)?
A: Its cytotoxicity at 24 h, 300 µM is 8%.

Q: What does the source list for `COCCn1nc(C(=O)OCOP(=O)([O-])OC[N+]2(CCCCOc3ccc4ccc(=O)[nH]c4c3)CCN(c3cccc4sccc34)CC2)c2ccccc21` [EX 82, (4-(benzo[b]thiophen-4-yl)-1-(4-((2-oxo-1.2-dihydroquinolin-7-yl)oxy)butyl)piperazin-1-ium-1-yl)methyl (((1-(2-methoxyethyl)-1H-indazole-3-carbonyl)oxy)methyl) phosphate]?
A: Concentration of brexpiprazole formed [1]: 0 nM; Concentration of evaluation compound decreased [1]: 20 nM; cytotoxicity at 24 h, 300 µM (in vitro): -2%

Q: What does the source list for `COC(=O)[C@H](COP(=O)([O-])OC[N+]1(CCCCOc2ccc3ccc(=O)[nH]c3c2)CCN(c2cccc3sccc23)CC1)NC(=O)OC(C)(C)C` [EX 83, (S)-(4-(benzo[b]thiophen-4-yl)-1-(4-((2-oxo-1,2-dihydroquinolin-7-yl)oxy)butyl)piperazin-1-ium-1-yl)methyl (2-(tert-butoxycarbonyl)amino)-3-methoxy-3-oxopropyl) phosphate]?
A: Concentration of brexpiprazole formed [1]: 0 nM; Concentration of evaluation compound decreased [1]: 70 nM; cytotoxicity at 24 h, 300 µM (in vitro): -5%
